Test results as given in patent US20250051356A1, “RIFABUTIN ANALOGS FOR THE TREATMENT OF DISEASE” (priority 2021, published 2025).
Values after ≈ are worked out from the molar mass of the structure shown. Like-named read-outs stand apart in the source and are kept apart here.

How the values were obtained:
Format in all cases: cell-based
[1] = tested on: S. aureus (UAMS-1625 strain); assay: MIC by broth microdilution against S. aureus; settings: Staphylococcus aureus, read-out: MIC S. aureus
[2] = tested on: A. baumannii (HUMC1 strain); assay: MIC by broth microdilution against A. baumannii in RPMI + 10% FCS; settings: Acinetobacter baumannii, read-out: MIC A. baumannii
[3] = tested on: M. abscessus subsp. abscessus ATCC 19977; assay: MIC against M. abscessus in Middlebrook 7H9 + ADC; settings: Mycobacteroides abscessus
M. kansasii (ATCC 12478) = assay: MIC against M. kansasii in CAMHB + ADC; settings: Mycobacterium kansasii
M. xenopi (ATCC 19250) = assay: MIC against M. xenopi in CAMHB + ADC; settings: Mycobacterium xenopi
M. avium (ATCC 25291) = assay: MIC against M. avium in CAMHB + ADC; settings: Mycobacterium avium
[4] = ATCC19977, ATCC 19977, 7H9 + ADC, read-out: MIC M. abscessus
[5] = ATCC12478, ATCC 12478, CAMHB + ADC (5%), read-out: MIC M. kansasii
[6] = ATCC19250, ATCC 19250, CAMHB + ADC (5%), read-out: MIC M. xenopi
[7] = ATCC25291, ATCC 25291, CAMHB + ADC (5%), read-out: MIC M. avium
[8] = ATCC19250, read-out: MIC M. xenopi
[9] = ATCC19977, read-out: MIC M. abscessus
[10] = ATCC12478, read-out: MIC M. kansasii
[11] = ATCC25291, read-out: MIC M. avium

| SMILES | MIC [1] [µg/mL] | MIC ([2]; HUMC1 strain, RPMI + 10% FCS) [µg/mL] | MIC [3, 4] [µg/mL] | MIC (M. kansasii (ATCC 12478); [5]) [µg/mL] | MIC (M. xenopi (ATCC 19250); [6]) [µg/mL] | MIC (M. avium (ATCC 25291); [7]) [µg/mL] | MIC (M. xenopi (ATCC 19250); [8]) [µg/mL] | MIC [2] [µg/mL] | MIC [3, 9] [µg/mL] | MIC (M. kansasii (ATCC 12478); [10]) [µg/mL] | MIC (M. avium (ATCC 25291); [11]) [µg/mL] |
| --- | --- | --- | --- | --- | --- | --- | --- | --- | --- | --- | --- |
| CO[C@H]1/C=C/O[C@@]2(C)Oc3c(C)c(O)c4c(c3C2=O)C2=NC3(CCN(CC(C)C)CC3)NC2=C(NC(=O)/C(C)=C\C=C\[C@H](C)[C@H](O)[C@@H](C)[C@@H](O)[C@@H](C)[C@H](OC(=O)CC(=O)N2CCN(Cc3ccccc3)CC2)[C@@H]1C)C4=O [Compound 91] | 0.25 (≈ 0.238 µM) | 0.016 | 0.125 | 0.001 | 0.03 | 0.125 |  |  |  |  |  |
| CO[C@H]1/C=C/OC2(C)Oc3c(C)c(O)c4c(c3C2=O)C2=NC3(CCN(CC(C)C)CC3)NC2=C(NC(=O)/C(C)=C\C=C\[C@H](C)[C@H](O)[C@@H](C)[C@@H](O)[C@@H](C)[C@H](OC(=O)CC(=O)NC2CCN(Cc3ccccc3)C2)[C@@H]1C)C4=O (stereo partly drawn) [Compound 93] | 0.125 (≈ 0.119 µM) | 0.008 | 0.25 | 0.008 | 0.25 | 0.5 |  |  |  |  |  |
| CO[C@H]1/C=C/O[C@@]2(C)Oc3c(C)c(O)c4c(c3C2=O)C2=NC3(CCN(CC(C)C)CC3)NC2=C(NC(=O)/C(C)=C\C=C\[C@H](C)[C@H](O)[C@@H](C)[C@@H](O)[C@@H](C)[C@H](OC(=O)CC(=O)N2CCN(C3Cc5ccccc5C3)CC2)[C@@H]1C)C4=O [Compound 95] | 0.5 (≈ 0.465 µM) | 0.03 | 0.125 | 0.002 | 0.03 | 0.125 |  |  |  |  |  |
| CO[C@H]1/C=C/OC2(C)Oc3c(C)c(O)c4c(c3C2=O)C2=NC3(CCN(CC(C)C)CC3)NC2=C(NC(=O)/C(C)=C\C=C\[C@H](C)[C@H](O)[C@@H](C)[C@@H](O)[C@@H](C)[C@H](OC(=O)CC(=O)N2CCN(C3CCCCC3)CC2)[C@@H]1C)C4=O (stereo partly drawn) [Compound 96] | 0.125 (≈ 0.12 µM) | 0.008 | 0.25 | 0.008 |  | 0.03 | 0.125 |  |  |  |  |
| CO[C@H]1/C=C/OC2(C)Oc3c(C)c(O)c4c(c3C2=O)C2=NC3(CCN(CC(C)C)CC3)NC2=C(NC(=O)/C(C)=C\C=C\[C@H](C)[C@H](O)[C@@H](C)[C@@H](O)[C@@H](C)[C@H](OC(=O)CC(=O)NCCCN(C)c2ccccc2)[C@@H]1C)C4=O (stereo partly drawn) [Compound 97] | 0.25 (≈ 0.241 µM) | 0.008 | 0.25 | 0.004 | 0.06 | 0.125 |  |  |  |  |  |
| CO[C@H]1/C=C/O[C@@]2(C)Oc3c(C)c(O)c4c(c3C2=O)C2=NC3(CCN(CC(C)C)CC3)NC2=C(NC(=O)/C(C)=C\C=C\[C@H](C)[C@H](O)[C@@H](C)[C@@H](O)[C@@H](C)[C@H](OC(=O)CC(=O)N2CCN(c3ccccn3)CC2)[C@@H]1C)C4=O [Compound 99] | 0.06 (≈ 0.0579 µM) | 0.008 | 0.25 | 0.004 | 0.125 | 0.125 |  |  |  |  |  |
| CO[C@H]1/C=C/OC2(C)Oc3c(C)c(O)c4c(c3C2=O)C2=NC3(CCN(CC(C)C)CC3)NC2=C(NC(=O)/C(C)=C\C=C\[C@H](C)[C@H](O)[C@@H](C)[C@@H](O)[C@@H](C)[C@H](OC(=O)CC(=O)N2CCC(c3ccccc3)CC2)[C@@H]1C)C4=O (stereo partly drawn) [Compound 101] | 0.5 (≈ 0.483 µM) |  |  |  |  |  | 0.03 | 0.06 | 0.125 | 0.002 | 0.03 |
| CO[C@H]1/C=C/OC2(C)Oc3c(C)c(O)c4c(c3C2=O)C2=NC3(CCN(CC(C)C)CC3)NC2=C(NC(=O)/C(C)=C\C=C\[C@H](C)[C@H](O)[C@@H](C)[C@@H](O)[C@@H](C)[C@H](OC(=O)CC(=O)N2C3CCC2CC(c2ccccc2)C3)[C@@H]1C)C4=O (stereo partly drawn) [Compound 102] | 0.5 (≈ 0.472 µM) |  |  |  |  | 0.03 | 0.06 | 0.03 | 0.25 | 0.008 |  |
| CO[C@H]1/C=C/O[C@@]2(C)Oc3c(C)c(O)c4c(c3C2=O)C2=NC3(CCN(CC(C)C)CC3)NC2=C(NC(=O)/C(C)=C\C=C\[C@H](C)[C@H](O)[C@@H](C)[C@@H](O)[C@@H](C)[C@H](OC(=O)CC(=O)N2CCC(c3ccncc3)CC2)[C@@H]1C)C4=O [Compound 104] | 0.06 (≈ 0.058 µM) | 0.004 | 0.25 | 0.004 | 0.125 | 0.25 |  |  |  |  |  |
| CO[C@H]1/C=C/O[C@@]2(C)Oc3c(C)c(O)c4c(c3C2=O)C2=NC3(CCN(CC(C)C)CC3)NC2=C(NC(=O)/C(C)=C\C=C\[C@H](C)[C@H](O)[C@@H](C)[C@@H](O)[C@@H](C)[C@H](OC(=O)CC(=O)N2CCC(Nc3ccc(C)cc3)CC2)[C@@H]1C)C4=O [Compound 105] | 0.25 (≈ 0.235 µM) |  |  |  |  |  | 0.03 | 0.06 | 0.25 | 0.004 | 0.125 |
| COc1cc(NC2CCN(C(=O)CC(=O)O[C@H]3[C@H](C)[C@H](O)[C@H](C)[C@@H](O)[C@@H](C)/C=C/C=C(/C)C(=O)NC4=C5NC6(CCN(CC(C)C)CC6)N=C5c5c(c(O)c(C)c6c5C(=O)[C@@](C)(O/C=C/[C@H](OC)[C@H]3C)O6)C4=O)CC2)cc(OC)c1 [Compound 106] | 0.25 (≈ 0.225 µM) | 0.008 | 0.25 | 0.03 | 0.125 | 0.5 |  |  |  |  |  |
| CO[C@H]1/C=C/O[C@@]2(C)Oc3c(C)c(O)c4c(c3C2=O)C2=NC3(CCN(CC(C)C)CC3)NC2=C(NC(=O)/C(C)=C\C=C\[C@H](C)[C@H](O)[C@@H](C)[C@@H](O)[C@@H](C)[C@H](OC(=O)CC(=O)N2CCC(Nc3ccccc3C#N)CC2)[C@@H]1C)C4=O [Compound 107] | 0.25 (≈ 0.233 µM) |  |  |  |  |  | 0.06 | 0.5 | 0.125 | 0.016 | 0.125 |
| CO[C@H]1/C=C/O[C@@]2(C)Oc3c(C)c(O)c4c(c3C2=O)C2=NC3(CCN(CC(C)C)CC3)NC2=C(NC(=O)/C(C)=C\C=C\[C@H](C)[C@H](O)[C@@H](C)[C@@H](O)[C@@H](C)[C@H](OC(=O)C(C)C(=O)N2CCCN(c3ccc(F)cc3)CC2)[C@@H]1C)C4=O (stereo partly drawn) [Compound 108] | 0.25 (≈ 0.231 µM) | 0.06 | 0.25 | 0.008 | 0.06 | 0.25 |  |  |  |  |  |
| CO[C@H]1/C=C/O[C@@]2(C)Oc3c(C)c(O)c4c(c3C2=O)C2=NC3(CCN(CC(C)C)CC3)NC2=C(NC(=O)/C(C)=C\C=C\[C@H](C)[C@H](O)[C@@H](C)[C@@H](O)[C@@H](C)[C@H](OC(=O)CC(=O)N2CCC(Nc3cccnc3)CC2)[C@@H]1C)C4=O [Compound 109] | 0.06 (≈ 0.0571 µM) |  |  |  |  |  | 0.25 | 0.004 | 0.25 | 0.03 | 1 |
| CO[C@H]1/C=C/O[C@@]2(C)Oc3c(C)c(O)c4c(c3C2=O)C2=NC3(CCN(CC(C)C)CC3)NC2=C(NC(=O)/C(C)=C\C=C\[C@H](C)[C@H](O)[C@@H](C)[C@@H](O)[C@@H](C)[C@H](OC(=O)CC(=O)N2CCC(Nc3ccncc3Cl)CC2)[C@@H]1C)C4=O [Compound 110] | 0.125 (≈ 0.115 µM) | 0.06 |  | 0.008 |  | 0.25 | 0.125 |  | 0.125 |  |  |
| CO[C@H]1/C=C/O[C@@]2(C)Oc3c(C)c(O)c4c(c3C2=O)C2=NC3(CCN(CC(C)C)CC3)NC2=C(NC(=O)/C(C)=C\C=C\[C@H](C)[C@H](O)[C@@H](C)[C@@H](O)[C@@H](C)[C@H](OC(=O)CC(=O)N2CCN(c3ccncc3)CC2)[C@@H]1C)C4=O [Compound 116] | 0.06 (≈ 0.0579 µM) | ≤ 0.002 | 0.25 | 0.06 | 1 | 2 |  |  |  |  |  |
| CO[C@H]1/C=C/O[C@@]2(C)Oc3c(C)c(O)c4c(c3C2=O)C2=NC3(CCN(CC(C)C)CC3)NC2=C(NC(=O)/C(C)=C\C=C\[C@H](C)[C@H](O)[C@@H](C)[C@@H](O)[C@@H](C)[C@H](OC(=O)CC(=O)N2CCN(c3ncccn3)CC2)[C@@H]1C)C4=O [Compound 117] | 0.03 (≈ 0.0289 µM) | ≤ 0.002 | 0.125 | 0.004 | 0.125 | 0.25 |  |  |  |  |  |
